Legend:
Details in all cases: exposure time: 72 h
E28 [1] = patient-derived glioblastoma stem cells of classical subtype; test: surviving fraction (nuclei count normalised to DMSO); higher = more cells surviving (less toxic)
E31 [2] = patient-derived glioblastoma stem cells of proneural subtype; test: as above
E21 [3] = patient-derived glioblastoma stem cells of mesenchymal subtype; test: as above
E57 [4] = patient-derived glioblastoma stem cells of mesenchymal subtype; test: as above
FT3469 [5] = normal neural stem cell line; test: as above
E34 [6] = patient-derived glioblastoma stem cells of proneural subtype; test: as above
E13 [7] = patient-derived glioblastoma stem cells of classical subtype; test: as above
E28 [8] = test: phenotypic distance (Euclidean, principal components) from DMSO controls (arbitrary units); higher = stronger morphological change
E31 [9] = test: as above
E21 [10] = test: as above
E57 [11] = test: as above
FT3469 [12] = test: as above
E34 [13] = test: as above
E13 [14] = test: as above
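Wherever phenotypic distance (Euclidean, principal components) from DMSO controls is given: cell Painting imaging in 384-well plates, CellProfiler features reduced to at least 20 principal components, Euclidean distance versus same-plate DMSO vehicle wells (0.1% v/v), median over six images per well.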
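Wherever surviving fraction (nuclei count normalised to DMSO) is given: nuclei counted by high-content imaging of Hoechst-stained cells in laminin-coated 384-well plates, relative to 0.1% DMSO vehicle wells, with staurosporine as cell-death control.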

Structure (SMILES): COc1nc(C)nc(Cl)c1NC1=NCCN1 [Moxonidine]
- surviving fraction (E28 [1]; 4.1 nM): 0.996
- surviving fraction (E28 [1]; 12.3 nM): 1.06
- surviving fraction (E28 [1]; 37 nM): 0.904
- surviving fraction (E28 [1]; 111.1 nM): 1.13
- surviving fraction (E28 [1]; 333.3 nM): 0.848
- surviving fraction (E28 [1]; 1000 nM): 1.05
- surviving fraction (E28 [1]; 3000 nM): 0.825
- surviving fraction (E31 [2]; 4.1 nM): 1
- surviving fraction (E31 [2]; 12.3 nM): 1.18
- surviving fraction (E31 [2]; 37 nM): 0.879
- surviving fraction (E31 [2]; 111.1 nM): 1.15
- surviving fraction (E31 [2]; 333.3 nM): 0.956
- surviving fraction (E31 [2]; 1000 nM): 1.21
- surviving fraction (E31 [2]; 3000 nM): 1.06
- surviving fraction (E21 [3]; 4.1 nM): 1.03
- surviving fraction (E21 [3]; 12.3 nM): 0.94
- surviving fraction (E21 [3]; 37 nM): 0.924
- surviving fraction (E21 [3]; 111.1 nM): 1.12
- surviving fraction (E21 [3]; 333.3 nM): 1.1
- surviving fraction (E21 [3]; 1000 nM): 1.06
- surviving fraction (E21 [3]; 3000 nM): 0.991
- surviving fraction (E57 [4]; 4.1 nM): 1.06
- surviving fraction (E57 [4]; 12.3 nM): 0.999
- surviving fraction (E57 [4]; 37 nM): 1.06
- surviving fraction (E57 [4]; 111.1 nM): 1.03
- surviving fraction (E57 [4]; 333.3 nM): 0.978
- surviving fraction (E57 [4]; 1000 nM): 0.975
- surviving fraction (E57 [4]; 3000 nM): 1.04
- surviving fraction (FT3469 [5]; 4.1 nM): 1.03
- surviving fraction (FT3469 [5]; 12.3 nM): 1.1
- surviving fraction (FT3469 [5]; 37 nM): 1.25
- surviving fraction (FT3469 [5]; 111.1 nM): 1.04
- surviving fraction (FT3469 [5]; 333.3 nM): 1.26
- surviving fraction (FT3469 [5]; 1000 nM): 1.18
- surviving fraction (FT3469 [5]; 3000 nM): 1.38
- surviving fraction (E34 [6]; 4.1 nM): 0.953
- surviving fraction (E34 [6]; 12.3 nM): 0.957
- surviving fraction (E34 [6]; 37 nM): 0.962
- surviving fraction (E34 [6]; 111.1 nM): 1.07
- surviving fraction (E34 [6]; 333.3 nM): 1.26
- surviving fraction (E34 [6]; 1000 nM): 0.981
- surviving fraction (E34 [6]; 3000 nM): 0.699
- surviving fraction (E13 [7]; 4.1 nM): 0.843
- surviving fraction (E13 [7]; 12.3 nM): 1.02
- surviving fraction (E13 [7]; 37 nM): 0.886
- surviving fraction (E13 [7]; 111.1 nM): 0.915
- surviving fraction (E13 [7]; 333.3 nM): 0.908
- surviving fraction (E13 [7]; 1000 nM): 0.948
- surviving fraction (E13 [7]; 3000 nM): 0.923
- phenotypic distance (E28 [8]; 4.1 nM): 0.486
- phenotypic distance (E28 [8]; 12.3 nM): 0.819
- phenotypic distance (E28 [8]; 37 nM): 0.764
- phenotypic distance (E28 [8]; 111.1 nM): 0.711
- phenotypic distance (E28 [8]; 333.3 nM): 0.733
- phenotypic distance (E28 [8]; 1000 nM): 0.573
- phenotypic distance (E28 [8]; 3000 nM): 0.781
- phenotypic distance (E31 [9]; 4.1 nM): 0.413
- phenotypic distance (E31 [9]; 12.3 nM): 0.823
- phenotypic distance (E31 [9]; 37 nM): 0.773
- phenotypic distance (E31 [9]; 111.1 nM): 0.902
- phenotypic distance (E31 [9]; 333.3 nM): 0.598
- phenotypic distance (E31 [9]; 1000 nM): 0.599
- phenotypic distance (E31 [9]; 3000 nM): 0.717
- phenotypic distance (E21 [10]; 4.1 nM): 0.506
- phenotypic distance (E21 [10]; 12.3 nM): 0.442
- phenotypic distance (E21 [10]; 37 nM): 0.528
- phenotypic distance (E21 [10]; 111.1 nM): 1.03
- phenotypic distance (E21 [10]; 333.3 nM): 0.334
- phenotypic distance (E21 [10]; 1000 nM): 0.69
- phenotypic distance (E21 [10]; 3000 nM): 0.274
- phenotypic distance (E57 [11]; 4.1 nM): 0.464
- phenotypic distance (E57 [11]; 12.3 nM): 0.657
- phenotypic distance (E57 [11]; 37 nM): 0.543
- phenotypic distance (E57 [11]; 111.1 nM): 0.801
- phenotypic distance (E57 [11]; 333.3 nM): 0.46
- phenotypic distance (E57 [11]; 1000 nM): 0.757
- phenotypic distance (E57 [11]; 3000 nM): 0.505
- phenotypic distance (FT3469 [12]; 4.1 nM): 0.479
- phenotypic distance (FT3469 [12]; 12.3 nM): 0.821
- phenotypic distance (FT3469 [12]; 37 nM): 0.541
- phenotypic distance (FT3469 [12]; 111.1 nM): 0.878
- phenotypic distance (FT3469 [12]; 333.3 nM): 0.406
- phenotypic distance (FT3469 [12]; 1000 nM): 0.742
- phenotypic distance (FT3469 [12]; 3000 nM): 0.873
- phenotypic distance (E34 [13]; 4.1 nM): 0.347
- phenotypic distance (E34 [13]; 12.3 nM): 0.861
- phenotypic distance (E34 [13]; 37 nM): 0.936
- phenotypic distance (E34 [13]; 111.1 nM): 0.523
- phenotypic distance (E34 [13]; 333.3 nM): 0.639
- phenotypic distance (E34 [13]; 1000 nM): 0.533
- phenotypic distance (E34 [13]; 3000 nM): 1.09
- phenotypic distance (E13 [14]; 4.1 nM): 0.65
- phenotypic distance (E13 [14]; 12.3 nM): 0.585
- phenotypic distance (E13 [14]; 37 nM): 0.647
- phenotypic distance (E13 [14]; 111.1 nM): 0.433
- phenotypic distance (E13 [14]; 333.3 nM): 0.523
- phenotypic distance (E13 [14]; 1000 nM): 0.446
- phenotypic distance (E13 [14]; 3000 nM): 0.37

Reference: the supplement of paper PMC13207355
